According to publication PMC10145651, “Modulation of the 5-Lipoxygenase Pathway by Chalcogen-Containing Inhibitors of Leukotriene A4 Hydrolase” (International Journal of Molecular Sciences, 2023):
Where two headings read alike, the source gives them in different places.

Tests used:
LTA4H [1] = molecular target: T1, LTA4H (Homo sapiens, UniProt P09960); experiment: Epoxide hydrolase inhibition assay with recombinant LTA4H (LTA4 to LTB4); format: biochemical; parameters: made in house; host or cells: Escherichia coli JM101; conditions: epoxide hydrolase activity, 10-40 μM LTA4, competitive inhibition model
T1 sequence (P09960 1-611): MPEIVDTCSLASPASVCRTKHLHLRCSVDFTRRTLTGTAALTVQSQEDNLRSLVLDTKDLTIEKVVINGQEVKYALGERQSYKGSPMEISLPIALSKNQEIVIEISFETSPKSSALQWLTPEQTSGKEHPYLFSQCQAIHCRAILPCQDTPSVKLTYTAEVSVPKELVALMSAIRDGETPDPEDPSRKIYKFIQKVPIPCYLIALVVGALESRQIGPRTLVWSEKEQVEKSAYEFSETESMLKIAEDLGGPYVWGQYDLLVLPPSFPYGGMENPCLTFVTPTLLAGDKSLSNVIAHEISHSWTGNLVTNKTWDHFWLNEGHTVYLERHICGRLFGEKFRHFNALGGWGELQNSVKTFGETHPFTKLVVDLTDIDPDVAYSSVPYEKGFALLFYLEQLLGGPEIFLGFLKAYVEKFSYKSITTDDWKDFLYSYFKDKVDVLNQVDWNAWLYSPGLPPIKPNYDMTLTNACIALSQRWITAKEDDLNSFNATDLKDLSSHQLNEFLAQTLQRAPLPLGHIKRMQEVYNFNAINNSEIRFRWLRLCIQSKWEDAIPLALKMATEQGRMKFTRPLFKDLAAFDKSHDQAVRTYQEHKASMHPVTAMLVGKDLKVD
From the text: Human recombinant LTA4H was expressed in Escherichia coli JM101 strain and purified as described previously. In short, supernatant of lysed cells was loaded on a nickel affinity column followed by the purification steps with the Mono Q 5/50 and Superdex HiLoad 16/600 columns (Cytiva, Uppsala, Sweden). Protein purity was checked by sodium dodecyl-sulfate polyacrylamide gel electrophoresis (SDS-PAGE)(XCell SureLock Mini-Cell Electrophoresis System and PowerEase 300W Power Supply) with a NuPAGE Bis-Tris 4–12% gels (Invitrogen, Waltham, MA, USA) after every purification step.
Purified LTA4H (3 μg) was pre-incubated with 0–50 μM inhibitors on ice for 3 min and the epoxide hydrolase reaction was carried out with 10 μM, 20 μM or 40 μM LTA4 for 15 s in 100 μL 25 mM Tris-HCl pH 7.8 at room temperature. The incubation was stopped by addition of 2 vol of methanol, containing 300 pmol PGB2 (ε ~ 26,000 M^−1 cm^−1; λmax = 280 nm) as an internal standard, and followed by 1 vol of distilled water. […] The formation of LTB4 (ε ~ 50,000 M^−1 cm^−1) was determined at 270 nm. The Ki value for each inhibitor was calculated using the competitive inhibition model in the GraphPad Prism 9 program.

LTA4H [2] = molecular target: T1, LTA4H; experiment: Peptidase assay of LTA4H with pNa and AMC conjugates; format: biochemical; parameters: made in house; host or cells: Escherichia coli JM101; conditions: for AC50: activation; for fold change of specific activity with L-Arg-AMC / fold change of specific activity with L-Arg-pNa / fold change of specific activity with L-Pro-AMC: vs LTA4H without inhibitor (decrease); for fold change of specific activity with L-Ala-pNa / fold change of specific activity with L-Leu-pNa / fold change of specific activity with L-Val-pNa: vs LTA4H without inhibitor (increase); for Specific activity of LTA4H with L-Ala-pNa in the presence of inhibitor: substrate L-Ala-pNa; for Specific activity of LTA4H with L-Ala-pNa in the presence of inhibitor / Specific activity of LTA4H with L-Arg-AMC in the presence of inhibitor / Specific activity of LTA4H with L-Arg-pNa in the presence of inhibitor / Specific activity of LTA4H with L-Leu-pNa in the presence of inhibitor / Specific activity of LTA4H with L-Pro-AMC in the presence of inhibitor / Specific activity of LTA4H with L-Pro-pNa in the presence of inhibitor / Specific activity of LTA4H with L-Val-pNa in the presence of inhibitor: mean ± SEM, n = 3; for Specific activity of LTA4H with L-Arg-AMC in the presence of inhibitor: substrate L-Arg-AMC; for Specific activity of LTA4H with L-Arg-pNa in the presence of inhibitor: substrate L-Arg-pNa; for Specific activity of LTA4H with L-Leu-pNa in the presence of inhibitor: substrate L-Leu-pNa; for Specific activity of LTA4H with L-Pro-AMC in the presence of inhibitor: substrate L-Pro-AMC; for Specific activity of LTA4H with L-Pro-pNa in the presence of inhibitor: substrate L-Pro-pNa; for Specific activity of LTA4H with L-Val-pNa in the presence of inhibitor: substrate L-Val-pNa
Experimental: In addition, the aminopeptidase assay was performed with p-nitroanilide (pNa) and 7-amido-4-methylcoumarin (AMC) conjugates containing different N-terminal amino acids. Incubations were carried out with 1 μg LTA4H and 1 mM pNa substrates or 5 µM AMC substrates in 400 μL 10 mM Tris-HCl pH 7.8 containing 100 mM KCl at room temperature for 30 min. The absorbance of released pNa was measured after every 5 min at 405 nm using a TECAN Infinite M200 plate reader. The measurements with AMC derivatives were carried out using a black polystyrene 96-well plate and the fluorescence of released AMC at 360 nm/460 nm (ex/em) was recorded. Specific activities were calculated based on the standard curves of free pNA and AMC (Figure S10). The activation (AC50) or inhibition constants (IC50) were determined using the non-linear regression approach in the GraphPad Prism 9 program.

[3] = 5 µM L-Arg-AMC, read-out: IC50, peptidase activity with L-Arg-AMC
[4] = 5 µM L-Pro-AMC, read-out: IC50, peptidase activity with L-Pro-AMC
[5] = 1 mM L-Arg-pNa, read-out: IC50, peptidase activity with L-Arg-pNa
[6] = 1 mM L-Lys-pNa, read-out: IC50, peptidase activity with L-Lys-pNa
[7] = 1 mM L-Ala-pNa, read-out: AC50, peptidase activity with L-Ala-pNa
[8] = 1 mM L-Leu-pNa, read-out: AC50, peptidase activity with L-Leu-pNa
[9] = 1 mM L-Val-pNa, read-out: AC50, peptidase activity with L-Val-pNa

Ki (LTA4H [1]) [nM]	Specific activity of LTA4H with L-Ala-pNa in the presence of inhibitor (LTA4H [2]) [µmol/µg/min]	Specific activity of LTA4H with L-Arg-AMC in the presence of inhibitor (LTA4H [2]) [µmol/µg/min]	Specific activity of LTA4H with L-Arg-pNa in the presence of inhibitor (LTA4H [2]) [µmol/µg/min]	Specific activity of LTA4H with L-Leu-pNa in the presence of inhibitor (LTA4H [2]) [µmol/µg/min]	Specific activity of LTA4H with L-Pro-AMC in the presence of inhibitor (LTA4H [2]) [µmol/µg/min]	Specific activity of LTA4H with L-Pro-pNa in the presence of inhibitor (LTA4H [2]) [µmol/µg/min]	Specific activity of LTA4H with L-Val-pNa in the presence of inhibitor (LTA4H [2]) [µmol/µg/min]	IC50 (LTA4H [2]; [3]) [nM]	IC50 (LTA4H [2]; [4]) [nM]	IC50 (LTA4H [2]; [5]) [nM]	IC50 (LTA4H [2]; [6]) [nM]	AC50 (LTA4H [2]; [7]) [nM]	AC50 (LTA4H [2]; [8]) [nM]	Structure (SMILES)	fold change of specific activity with L-Arg-AMC (LTA4H [2]; in parentheses) [x]	fold change of specific activity with L-Arg-pNa (LTA4H [2]; in parentheses) [x]	fold change of specific activity with L-Pro-AMC (LTA4H [2]; in parentheses) [x]	fold change of specific activity with L-Ala-pNa (LTA4H [2]; in parentheses) [x]	fold change of specific activity with L-Leu-pNa (LTA4H [2]; in parentheses) [x]	fold change of specific activity with L-Val-pNa (LTA4H [2]; in parentheses) [x]	other results
3800	93.0 ± 1.7	9.9 ± 0.1	0.2 ± 0.1	46.9 ± 1.7	15.8 ± 0.2	2.3 ± 0.2	24.4 ± 0.4	440 ± 140	310 ± 50	460 ± 50	890 ± 710	280 ± 40	560 ± 60	Nc1nc(-c2ccc(Cc3ccccc3)cc2)co1 [TTO, 4-(4-benzylphenyl) oxazol-2-amine]	3	89	2	9	12	30	AC50 (LTA4H [2]; [9]): 210 ± 20 nM; fold change of specific activity with L-Pro-pNa (LTA4H [2]; in parentheses, vs LTA4H without inhibitor): 1.3 x
1500	79.6 ± 7.6	10.1 ± 0.1	0.20 ± 0.03	46.3 ± 1.7	16.0 ± 0.2	2.65 ± 0.12	24.9 ± 0.8	330 ± 90	300 ± 70	360 ± 60	1060 ± 240	180 ± 40	480 ± 50	Nc1nc(-c2ccc(Cc3ccccc3)cc2)cs1 [ARM1, 4-(4-benzylphenyl) thiazol-2-amine, reference compound]							AC50 (LTA4H [2]; [9]): 230 ± 20 nM

Structure (SMILES)	Ki (LTA4H [1]) [nM]	Specific activity of LTA4H with L-Ala-pNa in the presence of inhibitor (LTA4H [2]) [µmol/µg/min]	Specific activity of LTA4H with L-Arg-AMC in the presence of inhibitor (LTA4H [2]) [µmol/µg/min]	Specific activity of LTA4H with L-Arg-pNa in the presence of inhibitor (LTA4H [2]) [µmol/µg/min]	Specific activity of LTA4H with L-Leu-pNa in the presence of inhibitor (LTA4H [2]) [µmol/µg/min]	Specific activity of LTA4H with L-Pro-AMC in the presence of inhibitor (LTA4H [2]) [µmol/µg/min]	Specific activity of LTA4H with L-Pro-pNa in the presence of inhibitor (LTA4H [2]) [µmol/µg/min]	Specific activity of LTA4H with L-Val-pNa in the presence of inhibitor (LTA4H [2]) [µmol/µg/min]	IC50 (LTA4H [2]; [3]) [nM]	IC50 (LTA4H [2]; [4]) [nM]	IC50 (LTA4H [2]; [5]) [nM]	IC50 (LTA4H [2]; [6]) [nM]	AC50 (LTA4H [2]; [7]) [nM]	AC50 (LTA4H [2]; [8]) [nM]	fold change of specific activity with L-Arg-AMC (LTA4H [2]; in parentheses) [x]	fold change of specific activity with L-Arg-pNa (LTA4H [2]; in parentheses) [x]	fold change of specific activity with L-Pro-AMC (LTA4H [2]; in parentheses) [x]	fold change of specific activity with L-Ala-pNa (LTA4H [2]; in parentheses) [x]	fold change of specific activity with L-Leu-pNa (LTA4H [2]; in parentheses) [x]	fold change of specific activity with L-Val-pNa (LTA4H [2]; in parentheses) [x]	other results
Nc1nc(-c2ccc(Cc3ccccc3)cc2)c[se]1 [TTSe, 4-(4-benzylphenyl) selenazol-2-amine]	4800	88.0 ± 4.6	10.1 ± 0.1	0.20 ± 0.07	37.6 ± 1.1	15.7 ± 0.2	2.8 ± 0.1	24.6 ± 0.5							3	94	2	9	10	30	AC50 (LTA4H [2]; AC50, peptidase activity with L-Ala-pNa, 1 mM L-Ala-pNa): 210 ± 30 nM; AC50 (LTA4H [2]; AC50, peptidase activity with L-Leu-pNa, 1 mM L-Leu-pNa): 520 ± 50 nM; AC50 (LTA4H [2]; AC50, peptidase activity with L-Val-pNa, 1 mM L-Val-pNa): 270 ± 30 nM; IC50 (LTA4H [2]; IC50, peptidase activity with L-Arg-AMC, 5 µM L-Arg-AMC): 380 ± 90 nM; IC50 (LTA4H [2]; IC50, peptidase activity with L-Arg-pNa, 1 mM L-Arg-pNa): 490 ± 100 nM; IC50 (LTA4H [2]; IC50, peptidase activity with L-Lys-pNa, 1 mM L-Lys-pNa): 1010 ± 360 nM; IC50 (LTA4H [2]; IC50, peptidase activity with L-Pro-AMC, 5 µM L-Pro-AMC): 250 ± 20 nM
